Reference: patent US11015223B2, “Methods for determining response to a hypomethylating agent” (THE REGENTS OF THE UNIVERSITY OF CALIFORNIA, priority 2013, dated 2021)

Tested on: MDS patients
Test: Response to treatment by IWG response criteria revised in 2006 (CR/PR/HI = responders)
Format: in vivo, human
Settings: for Non-Responders (NR/SD/PD/Died/NE) (%) / Non-Responders (NR/SD/PD/Died/NE) N / Responders (CR/PR/HI) N / Responders (CR/PR/HI) (%): all patients on the treatment
Text: A total of 213 MDS patients treated azacitidine or decitabine were included in this study. Samples were obtained from patients treated at the Dana-Farber Cancer Institute (n=42), the MD Anderson Cancer Center (n=104), and as part of the DACO-020 (ADOPT) clinical trial of decitabine (n=67). All samples were collected with patient consent under IRB-approved protocols in accordance with the Declaration of Helsinki. There were no significant differences in baseline patient characteristics by treatment site (Table 1).
Response to treatment was assessed using IWG response criteria revised in 2006. Patients with either a complete response (CR), partial response (PR), or hematologic improvement (HI) were considered as ‘responders’ (R, n=100, 47%). whereas patients described as having ‘no response’, ‘stable disease’, ‘progressive disease’, ‘death’ before response assessment, or ‘not evaluable’ were considered ‘non-responders’ (NR, […], 53%).
Categorical variables were compared using a Fisher exact test, while continuous variables were compared using a Wilcoxon rank-sum test. A Cochran-Mantel-Haenszel (CMH) test was used to test for differences in response rate by mutational status controlling for treatment. Unadjusted and adjusted logistic regression models were used to predict response to therapy. A stepwise algorithm for logistic regression was also utilized to determine a final model; candidate variables considered for inclusion were all mutations, treatment, IPSS classification, age, and sex. The Hosmer and Lemeshow goodness-of-fit test was used to assess model fit for logistic regression models. Overall survival was calculated from the time of treatment to the time of death from any cause or was censored at the date last known alive. Unadjusted and adjusted Cox regression models were constructed for overall survival. A stepwise regression algorithm for Cox regression models was used including the same candidate variables as in the logistic regression modeling. Classification trees were also created using the Rpart package in R version 2.11.1 to classify responders based on mutational status. Cross-validation was used for tree pruning. All p-values reported are two-sided and considered significant at the 0.05 level. No adjustments were made for multiple hypothesis testing.

## Nc1ncn([C@H]2C[C@H](O)[C@@H](CO)O2)c(=O)n1 [decitabine, 5-aza-2′-deoxycytidine]
  Non-Responders (NR/SD/PD/Died/NE) (%): (53) %
  Non-Responders (NR/SD/PD/Died/NE) N: 76 N
  Responders (CR/PR/HI) N: 68 N
Listed as Dec Alone
  Responders (CR/PR/HI) (%): 47%
Listed as Decitabine Alone
  Responders (CR/PR/HI) (%): (47) %
Patients with ASXL1 mutation
  Response (%): 42%
  Response N: 29 N
Patients with ATRX mutation
  Response (%): 25%
  Response N: 2 N
Patients with BCOR mutation
  Response (%): 56%
  Response N: 9 N
Patients with CBL mutation
  Response (%): 11%
  Response N: 1 N
Patients with DNMT3A mutation
  Response (%): 36%
  Response N: 8 N
Patients with ETV6 mutation
  Response (%): 50%
  Response N: 3 N
Patients with EZH2 mutation
  Response (%): 44%
  Response N: 7 N
Patients with IDH1 mutation
  Response (%): 25%
  Response N: 2 N
Patients with IDH2 mutation
  Response (%): 17%
  Response N: 2 N
Patients with JAK2 mutation
  Response (%): 40%
  Response N: 2 N
Patients with KDM3A mutation
  Response (%): 25%
  Response N: 2 N
Patients with KDM6B mutation
  Response (%): 25%
  Response N: 2 N
Patients with KRAS mutation
  Response (%): 20%
  Response N: 1 N
Patients with MAML1 mutation
  Response (%): 54%
  Response N: 7 N
Patients with NF1 mutation
  Response (%): 31%
  Response N: 4 N
Patients with NOTCH1 mutation
  Response (%): 38%
  Response N: 5 N
Patients with NOTCH2 mutation
  Response (%): 58%
  Response N: 11 N
Patients with NPM1 mutation
  Response (%): 71%
  Response N: 5 N
Patients with NRAS mutation
  Response (%): 73%
  Response N: 11 N
Patients with PHF6 mutation
  Response (%): 50%
  Response N: 5 N
Patients with PRPF8 mutation
  Response (%): 33%
  Response N: 3 N
Patients with PTPN11 mutation
  Response (%): 17%
  Response N: 1 N
Patients with RUNX1 mutation
  Response (%): 53%
  Response N: 16 N
Patients with SCAF11 mutation
  Response (%): 25%
  Response N: 2 N
Patients with SF3B1 mutation
  Response (%): 36%
  Response N: 8 N
Patients with SRSF2 mutation
  Response (%): 56%
  Response N: 14 N
Patients with TET2 mutation
  Response (%): 54%
  Response N: 22 N
Patients with TLR1 mutation
  Response (%): 71%
  Response N: 5 N
Patients with TP53 mutation
  Response (%): 47%
  Response N: 9 N
Patients with U2AF1 mutation
  Response (%): 50%
  Response N: 9 N
Patients with ZRSR2 mutation
  Response (%): 44%
  Response N: 4 N

## Decitabine+
  Non-Responders (NR/SD/PD/Died/NE) (%): (56) %
  Non-Responders (NR/SD/PD/Died/NE) N: 15 N
  Responders (CR/PR/HI) (%): (44) %
  Responders (CR/PR/HI) N: 12 N
Listed as Dec Plus
  Responders (CR/PR/HI) (%): 44%
Patients with ASXL1 mutation
  Response (%): 50%
  Response N: 3 N
Patients with ATRX mutation
  Response (%): 100%
  Response N: 1 N
Patients with BCOR mutation
  Response (%): 50%
  Response N: 1 N
Patients with CBL mutation
  Response (%): 0 (0) %
  Response N: 0 (0) N
Patients with DNMT3A mutation
  Response (%): 67%
  Response N: 4 N
Patients with ETV6 mutation
  Response (%): 0 (0) %
  Response N: 0 (0) N
Patients with EZH2 mutation
  Response (%): 0 (0) %
  Response N: 0 (0) N
Patients with IDH1 mutation
  Response (%): 0 (0) %
  Response N: 0 (0) N
Patients with IDH2 mutation
  Response (%): 0 (0) %
  Response N: 0 (0) N
Patients with JAK2 mutation
  Response (%): 0 (0) %
  Response N: 0 (0) N
Patients with KDM3A mutation
  Response (%): 0 (0) %
  Response N: 0 (0) N
Patients with KDM6B mutation
  Response (%): 100%
  Response N: 3 N
Patients with KRAS mutation
  Response (%): 0 (0) %
  Response N: 0 (0) N
Patients with MAML1 mutation
  Response (%): 75%
  Response N: 3 N
Patients with NF1 mutation
  Response (%): 50%
  Response N: 1 N
Patients with NOTCH1 mutation
  Response (%): 0 (0) %
  Response N: 0 (0) N
Patients with NOTCH2 mutation
  Response (%): 100%
  Response N: 5 N
Patients with NPM1 mutation
  Response (%): 100%
  Response N: 1 N
Patients with NRAS mutation
  Response (%): 50%
  Response N: 1 N
Patients with PHF6 mutation
  Response (%): 0 (0) %
  Response N: 0 (0) N
Patients with PRPF8 mutation
  Response (%): 0 (0) %
  Response N: 0 (0) N
Patients with PTPN11 mutation
  Response (%): 67%
  Response N: 2 N
Patients with RUNX1 mutation
  Response (%): 75%
  Response N: 3 N
Patients with SCAF11 mutation
  Response (%): 100%
  Response N: 2 N
Patients with SF3B1 mutation
  Response (%): 50%
  Response N: 2 N
Patients with SRSF2 mutation
  Response (%): 50%
  Response N: 2 N
Patients with TET2 mutation
  Response (%): 80%
  Response N: 4 N
Patients with TLR1 mutation
  Response (%): 67%
  Response N: 2 N
Patients with TP53 mutation
  Response (%): 42%
  Response N: 5 N
Patients with U2AF1 mutation
  Response (%): 0 (0) %
  Response N: 0 (0) N
Patients with ZRSR2 mutation
  Response (%): 0 (0) %
  Response N: 0 (0) N
